# Test results published in patent US11034648B2, “Cystobactamide derivatives” (priority 2017, dated 2021).
# How the values were obtained:
# [1] = system: E. coli WT-3 [gyrA(S83L,D87G)]; test: microbe, parasite or virus in culture; format: cell-based; details: Escherichia coli, read-out: MIC E. coli WT-3 [gyrA(S83L,D87G)]
# Procedure, shortened: (§1)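 First, overnight cultures were diluted into cation-adjusted Müller-Hinton broth at 10^4-10^6 cfu/mL. Next, they were exposed to serial compound dilutions for approx. 16 h at 30-37° C. Finally, wells were inspected visually and the MIC assigned where growth was absent.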
# E. coli ΔtolC = test: microbe, parasite or virus in culture; format: cell-based; details: Escherichia coli, 16 h, read-out: MIC E. coli ΔtolC, small panel, Tables 1a/1b; no visual growth after approx. 16 h
# Procedure, shortened: as §1
# P. aeruginosa ΔmexAB = test: microbe, parasite or virus in culture; format: cell-based; details: Pseudomonas aeruginosa, 16 h, read-out: MIC P. aeruginosa ΔmexAB, efflux-deficient strain; small panel, Tables 1a/1b
# Procedure, shortened: as §1
# E. coli WT DSM-1116 = test: MIC, microbroth dilution susceptibility assay; format: cell-based; details: Escherichia coli, DSM1116; small panel, Tables 1a/1b; no visual growth after approx. 16 h; read-out: MIC E. coli WT DSM-1116
# Procedure, shortened: as §1
# E. coli WT = test: MIC, microbroth dilution susceptibility assay; format: cell-based; details: Escherichia coli
# Procedure, shortened: as §1
# P. aeruginosa WT PA14 = test: MIC, microbroth dilution susceptibility assay; format: cell-based; details: Pseudomonas aeruginosa, PA14, small panel, Tables 1a/1b; read-out: MIC P. aeruginosa WT PA14
# Procedure, shortened: as §1
# S. aureus Newman = test: MIC, microbroth dilution susceptibility assay; format: cell-based; details: Staphylococcus aureus, NEWMAN; small panel, Tables 1a/1b; read-out: MIC S. aureus Newman
# Procedure, shortened: as §1
# E. coli gyrase = target: T1, E. coli gyrase (Escherichia coli, UniProt P0AES4+P0AES6); test: E. coli gyrase supercoiling (sc) assay; format: biochemical; details: supercoiling assay kit, agarose gel quantification; read-out: Ec gyrase sc IC50
# T1 construct: purchased Inspiralis
# Description: The target activity on E. coli gyrase was assessed as described in Baumann et al., Angew Chem Int Ed Engl. 2014; 53(52):14605-9 using a commercial supercoiling (sc) assay kit from Inspiralis according to the manufacturer's instructions. The samples were separated on 0.8% (w/v) agarose gels and relaxed and supercoiled plasmid was visualized by ethidium bromide staining. Half-inhibitory concentrations (IC50) were calculated after image analysis and quantification (ImageJ) based on sigmoidal curve fitting (OriginPro).
# A. baumannii = test: MIC, microbroth dilution susceptibility assay (Table 2b); format: cell-based; details: Acinetobacter baumannii, larger panel
# Description: (§2) Cystobactamid derivatives synthesized were tested against relevant Gram negative and positive bacteria of clinical interest. Experimental procedures used for the biological characterization of the compounds are the same as previously described in WO 2016/082934.
# (§3) Bacterial strains used in susceptibility assays (minimum inhibitory concentration, MIC) were either part of our internal strain collection or purchased from the German Collection of Microorganisms and Cell Cultures (Deutsche Sammlung von Mikroorganismen und Zellkulturen, DSMZ) and the American Type Culture Collection (ATCC). The susceptible E. coli strain (WT) and fluoroquinolone-resistant mutants E. coli WT-3 and WT-III were kindly provided by Prof Dr. P. Heisig, Pharmaceutical Biology and Microbiology, University of Hamburg, Germany. The efflux-deficient strain P. aeruginosa ΔmexAB was kindly provided by Prof Dr. S. Häußler, Institute for Molecular Bacteriology, TWINCORE, Hannover, Germany. All compounds were prepared as DMSO stocks and MIC values were determined in standard microbroth dilution assays in 96-well MTPs as described in Baumann et al., Angew Chem Int Ed Engl. 2014; 53(52):14605-9. In brief, overnight cultures of bacteria were diluted in either tryptic soy broth (TSB: 1.7% peptone casein, 0.3% peptone soymeal, 0.25% glucose, 0.5% NaCl, 0.25% K2HPO4; pH 7.3; S. pneumoniae and E. faecalis) or cation-adjusted Müller-Hinton Broth (BBL™, BD; all other bacteria) and adjusted to 10^4-10^6 cfu/mL. Bacteria were grown in the presence of the derivatives in serial dilution for approx. 16 h at 30-37° C. MIC values were determined and were defined as the antibiotic concentration at which no visual growth of bacteria was observed.
# C. freundii = test: as above; format: cell-based; details: Citrobacter freundii, larger panel
# Description: as §2, §3
# E. aerogenes = test: as above; format: cell-based; details: Klebsiella aerogenes, larger panel
# Description: as §2, §3
# E. cloacae = test: as above; format: cell-based; details: Enterobacter cloacae, larger panel
# Description: as §2, §3
# E. faecalis = test: as above; format: cell-based; details: Enterococcus faecalis, larger panel
# Description: as §2, §3
# K. pneumoniae = test: as above; format: cell-based; details: Klebsiella pneumoniae, larger panel
# Description: as §2, §3
# P. aeruginosa ESBL 1 = test: as above; format: cell-based; details: Pseudomonas aeruginosa, ESBL1, larger panel
# Description: as §2, §3
# P. aeruginosa ESBL 2 = test: as above; format: cell-based; details: Pseudomonas aeruginosa, ESBL2, larger panel
# Description: as §2, §3
# P. mirabilis = test: as above; format: cell-based; details: Proteus mirabilis, larger panel
# Description: as §2, §3
# P. vulgaris = test: as above; format: cell-based; details: Proteus vulgaris, larger panel
# Description: as §2, §3
# S. epidermidis = test: as above; format: cell-based; details: Staphylococcus epidermidis, larger panel
# Description: as §2, §3
# S. marcescens = test: as above; format: cell-based; details: Serratia marcescens, larger panel
# Description: as §2, §3
# A. baumannii DSM-30008 = test: MIC, microbroth dilution susceptibility assay; format: cell-based; details: Acinetobacter baumannii, DSM30008; large panel, Table 2a
# Procedure, shortened: as §1
# C. freundii DSM-30039 = test: MIC, microbroth dilution susceptibility assay; format: cell-based; details: Citrobacter freundii, DSM30039; large panel, Table 2a
# Procedure, shortened: as §1
# E. aerogenes DSM-30053 = test: MIC, microbroth dilution susceptibility assay; format: cell-based; details: Klebsiella aerogenes, DSM30053; large panel, Table 2a
# Procedure, shortened: as §1
# E. cloacae DSM-30054 = test: MIC, microbroth dilution susceptibility assay; format: cell-based; details: Enterobacter cloacae, DSM30054; large panel, Table 2a
# Procedure, shortened: as §1
# E. faecalis ATCC-29212 = test: MIC, microbroth dilution susceptibility assay; format: cell-based; details: Enterococcus faecalis, ATCC29212; large panel, Table 2a; TSB
# Procedure, shortened: as §1
# K. pneumoniae DSM-30104 = test: MIC, microbroth dilution susceptibility assay; format: cell-based; details: Klebsiella pneumoniae, DSM30104; large panel, Table 2a
# Procedure, shortened: as §1
# P. aeruginosa DSM-24600 = test: MIC, microbroth dilution susceptibility assay; format: cell-based; details: Pseudomonas aeruginosa, DSM24600; large panel, Table 2a
# Procedure, shortened: as §1
# P. aeruginosa DSM-46316 = test: MIC, microbroth dilution susceptibility assay; format: cell-based; details: Pseudomonas aeruginosa, DSM46316; large panel, Table 2a
# Procedure, shortened: as §1
# P. mirabilis DSM-2140 = test: MIC, microbroth dilution susceptibility assay; format: cell-based; details: Proteus mirabilis, DSM2140; large panel, Table 2a
# Procedure, shortened: as §1
# P. vulgaris DSM-2140 = test: MIC, microbroth dilution susceptibility assay; format: cell-based; details: Proteus vulgaris, DSM2140; large panel, Table 2a
# Procedure, shortened: as §1
# S. aureus ATCC-29213 = test: MIC, microbroth dilution susceptibility assay; format: cell-based; details: Staphylococcus aureus, ATCC29213; large panel, Table 2a
# Procedure, shortened: as §1
# S. epidermidis DSM-28765 = test: MIC, microbroth dilution susceptibility assay; format: cell-based; details: Staphylococcus epidermidis, DSM28765; large panel, Table 2a
# Procedure, shortened: as §1
# S. marcescens DSM-30121 = test: MIC, microbroth dilution susceptibility assay; format: cell-based; details: Serratia marcescens, DSM30121; large panel, Table 2a
# Procedure, shortened: as §1
# S. pneumoniae DSM-20566 = test: MIC, microbroth dilution susceptibility assay; format: cell-based; details: Streptococcus pneumoniae, DSM20566; large panel, Table 2a; TSB
# Procedure, shortened: as §1
# [2] = system: E. coli WT-III [marRΔ74bp]; format: cell-based; details: fluoroquinolone-resistant mutant; Table 2a
# Description: as §2, §3
smiles,measurement,setting,value
"CO[C@@H](C(N)=O)[C@H](NC(=O)c1ccc(NC(=O)c2ccc(C#N)cc2)cc1)C(=O)Nc1ccc(C(=O)Nc2ccc(C(=O)Nc3ccc(C(=O)O)cc3)c(O)c2OC(C)C)cc1 [Compound 109, 4-(4-(4-((2S,3R)-4-amino-2-(4-(4-cyanobenzamido)benzamido)-3-methoxy-4-oxobutanamido)benzamido)-2-hydroxy-3-isopropoxybenzamido)benzoic acid]",MIC,[1],0.25 µg/mL
same,MIC,E. coli ΔtolC,< 0.03 µg/mL
same,MIC,P. aeruginosa ΔmexAB,< 0.03 µg/mL
same,MIC,E. coli WT DSM-1116,< 0.03 µg/mL
same,MIC,"E. coli WT; larger panel, Table 2b",2 µg/mL
same,MIC,P. aeruginosa WT PA14,0.5 µg/mL
same,MIC,S. aureus Newman,< 0.03 µg/mL
same,IC50,E. coli gyrase,400 nM
same,MIC,A. baumannii,1 µg/mL
same,MIC,C. freundii,< 0.03 µg/mL
same,MIC,E. aerogenes,2 µg/mL
same,MIC,E. cloacae,> 64 µg/mL
same,MIC,E. faecalis,0.125 µg/mL
same,MIC,K. pneumoniae,8 µg/mL
same,MIC,P. aeruginosa ESBL 1,2 µg/mL
same,MIC,P. aeruginosa ESBL 2,1 µg/mL
same,MIC,P. mirabilis,4 µg/mL
same,MIC,P. vulgaris,0.125 µg/mL
same,MIC,S. epidermidis,< 0.03 µg/mL
same,MIC,S. marcescens,> 64 µg/mL
"CC(C)Oc1c(NC(=O)c2ccc(NC(=O)[C@H](CC(N)=O)NC(=O)c3ccc(NC(=O)c4ccc([N+](=O)[O-])cc4)cc3)cc2)ccc(C(=O)Nc2ccc(C(=O)O)cc2)c1O [Compound 28, (S)-4-(4-(4-(4-amino-2-(4-(4-nitrobenzamido)benzamido)-4-oxobutanamido)benzamido)-2-hydroxy-3-isopropoxybenzamido)benzoic acid]",MIC,[1],0.25 µg/mL
same,MIC,E. coli ΔtolC,0.06 µg/mL
same,MIC,P. aeruginosa ΔmexAB,1 µg/mL
same,MIC,A. baumannii DSM-30008,0.25 µg/mL
same,MIC,C. freundii DSM-30039,0.06 µg/mL
same,MIC,E. aerogenes DSM-30053,> 64 µg/mL
same,MIC,E. cloacae DSM-30054,0.25 µg/mL
same,MIC,E. coli WT DSM-1116,0.13 µg/mL
same,MIC,"E. coli WT; large panel, Table 2a",0.06 µg/mL
same,MIC,E. faecalis ATCC-29212,2 µg/mL
same,MIC,K. pneumoniae DSM-30104,> 64 µg/mL
same,MIC,P. aeruginosa DSM-24600,> 64 µg/mL
same,MIC,P. aeruginosa DSM-46316,> 64 µg/mL
same,MIC,P. aeruginosa WT PA14,> 64 µg/mL
same,MIC,P. mirabilis DSM-2140,> 64 µg/mL
same,MIC,P. vulgaris DSM-2140,0.13 µg/mL
same,MIC,S. aureus ATCC-29213,0.5 µg/mL
same,MIC,S. aureus Newman,0.5 µg/mL
same,MIC,S. epidermidis DSM-28765,1 µg/mL
same,MIC,S. marcescens DSM-30121,> 64 µg/mL
same,MIC,S. pneumoniae DSM-20566,0.25 µg/mL
same,IC50,E. coli gyrase,110 nM
same,MIC E. coli WT-III [marRΔ74bp],[2],0.06 µg/mL
